Reference: article PMC10342533, “Novel Tetrazole Derivatives Targeting Tubulin Endowed with Antiproliferative Activity against Glioblastoma Cells” (International Journal of Molecular Sciences, 2023)

Assays:
[1] = tested on: HepG2 (hepatocellular carcinoma); test: Cell growth inhibition, MTT assay, HepG2; assay type: cell-based; conditions: Homo sapiens
Protocol: (§1) The ability of the synthesized compounds to inhibit the cell proliferation of human cancer cell lines was assayed by measuring cell viability through the use of the MTT method 72 h after treatment. For this purpose, representative cell lines of the most frequent kinds of cancer were selected, including the following: HeLa (cervix epithelioid carcinoma), MCF7 (breast adenocarcinoma), U87 MG (glioblastoma), T98G (temozolomide resistant glioblastoma), HepG2 (hepatocellular carcinoma), HCT8 (colorectal carcinoma), and HT-29 (colon adenocarcinoma).
(§2) The cell lines were obtained from ATTC (Manassas, VA, USA). […] The cells were periodically tested for Mycoplasma infection by using a MycoAlert kit (Lonza, Norwest, Australia), and only Mycoplasma-free cells were used in the experiments.
(§3) Then, every compound was added (10 µL/well) to a final concentration of 10 µM. Untreated cells were used as negative controls. The antiproliferative activity of compounds was measured 72 h after drug exposure through the MTT assay. […] For this purpose, compounds were used at different concentrations, ranging from 10^−10 to 10^−2 M. Measurements were performed in triplicate, and each experiment was repeated three times. The IC50 values were determined using Origin software (version 9.6, OriginLab, Washington, DC, USA).

[2] = tested on: HT-29 (colon adenocarcinoma); test: Cell growth inhibition, MTT assay, HT-29, without or with verapamil; assay type: cell-based, human
Protocol: as §1
Multidrug resistance (MDR) proteins, especially P-glycoprotein (P-gp), are often involved in resistance mechanisms affecting tubulin-binding drugs that are frequently related to the failure of cancer therapies. […] These pumps are also part of the blood–brain barrier.
as §2, §3

[3] = molecular target: T1, microtubular protein isolated from calf brains (bovine brain tubulin) (Bos taurus, UniProt P81947+Q6B856); test: Tubulin polymerization inhibition (TPI); assay type: biochemical; conditions: in vitro tubulin polymerization, mean ± SD
T1 construct: from tissue; host or cells: calf (bovine) brain
Protocol: We evaluated the capacity of the new synthesized compounds to inhibit the polymerization of microtubular protein isolated from calf brains. The assays were performed by taking absorbance measurements to quantify the amount of polymer mass formed in the presence (or absence; negative controls) of the compounds.
Bovine brain tubulin was isolated as previously described by following a modified version of the Shelanski method. The protein was stored at −80 °C, and its concentration was determined by employing the Bradford method before each use. […] Tubulin polymerization, caused when heating the samples, was accompanied by an increase in the absorbance (at 450 nm) of the sample that was monitored by using a Helios α spectrophotometer. […] Measurements were performed in triplicate in two independent experiments using microtubular proteins from different preparations.

MCF7 cells = test: Apoptotic cell death quantification, Annexin V-FITC/PI, MCF7; assay type: cell-based, human; conditions: MCF7, 72 h, 100 nM; for Necrotic cells: PI+ AnV−
Protocol: (§4) To characterize the cell death mechanism induced by the representative compounds 10, 12, or 14 at 100 nM on HeLa, MCF7, and U87 MG cells, dual-channel flow cytometry studies were carried out for cells in the absence (negative control) or presence of compounds 72 h after treatment. Fluorescein isothiocyanate-labeled Annexin V (FITC-AnV) and propidium iodide (PI) were used for double staining. Regarding their response to AnV and PI, cells can be identified as viable (PI−, AnV−), early apoptotic (PI−, AnV+), late apoptotic or secondary necrotic (PI+, AnV+), or necrotic (PI+, AnV−). The translocation of the phosphatidylserine from the inner to the outer cell membrane causes the response of apoptotic cells to AnV, whereas only cells suffering some kind of membrane disintegration (late apoptotic or necrotic cells) allow PI permeation.
(§5) Following the manufacturer’s guidelines, an Annexin V-FITC/PI apoptosis detection kit (Immunostep, Salamanca, Spain) was used to quantify HeLa, MCF7, or U87 MG cells. Cells were seeded in 12-well plates (5·10^4 cells/mL, 1 mL/well) and incubated in complete DMEM medium (see above) at 37 °C and 5% CO2 atmosphere for 24 h. Then, the cells were treated with selected compounds (10, 12, or 14) at 100 nM, and untreated cells were used as negative controls. Then, 72 h after incubation, the cells were harvested, centrifugated, resuspended in the Annexin V binding buffer, and incubated in darkness with Annexin V-FITC/PI for 15 min at room temperature. The samples were analyzed by using a BD Accuri™ C6 Plus Flow Cytometer (BD Biosciences), and acquired data were analyzed via BD Accuri™ C6 Software (version 1.0.264.21).

U87 MG cells = test: Apoptotic cell death quantification, Annexin V-FITC/PI, U87 MG; assay type: cell-based, human; conditions: 72 h, 100 nM; for Necrotic cells: PI+ AnV−; for Live cells: PI− AnV−
Protocol: as §4, §5

[4] = tested on: microtubule network of HeLa cells; test: Immunofluorescence confocal microscopy of microtubule network, HeLa; assay type: cell-based, human; conditions: 24 h, 100 nM, α-tubulin immunofluorescence
Protocol: (§6) To elucidate if the interaction of the compounds with tubulin inferred from the in vitro TPI experiments has consequences on cellular microtubules, we studied the effect of representative compounds on the microtubule network of HeLa, MCF7, and U87 MG cells 24 h after treatment via the use of immunofluorescence confocal microscopy through α-tubulin and nuclei labeling.
(§7) HeLa, MCF7, and U87 MG cells (8·10^4 cells/mL) were grown on 0.01% poly-L-lysine pre-coated square glass coverslips (22 mm^2), deposited on 6-well plates (1 coverslip/well), and incubated in complete DMEM medium (see above) at 37 °C and 5% CO2 atmosphere for 24 h. Then, the cells were incubated for 24 h in the presence or absence (negative controls) of selected compounds (10, 12, or 14) at 100 nM. After drug treatment incubation, medium was removed, and coverslips were washed three times with PBS, fixed with 4% formaldehyde in PBS for 10 min, permeabilized with 0.5% Triton X-100, (Sigma-Aldrich, St. Louis, MO, USA) in PBS for 90 s at 4 °C, blocked with 10% BSA in PBS for 30 min, and washed with PBS four times. The coverslips were incubated for 1 h with anti-α-tubulin mouse monoclonal antibody (Sigma-Aldrich, St. Louis, MO, USA), diluted 1:200 in PBS containing 3% BSA, washed four times with PBS, and then incubated in darkness with the fluorescent secondary antibody Alexa Fluor 488 goat anti-mouse IgG (Molecular Probes, Invitrogen, Eugenen, OR, USA) and diluted 1:400 in PBS containing 1% BSA for 1.5 h. The coverslips were washed four times with PBS, and a drop of ProLong™ Gold Antifade Mountant containing DAPI (ThermoFisher, Waltham, MA, USA) was added for cell nuclei staining. The samples were analyzed via confocal microscopy, which was performed by using a LEICA SP5 microscope DMI-6000V model coupled to a LEICA LAS AF software computer.

[5] = tested on: microtubule network of U87 MG cells; test: Immunofluorescence confocal microscopy of microtubule network, U87 MG; assay type: cell-based, human; conditions: 24 h, 100 nM, α-tubulin immunofluorescence
Protocol: as §6, §7

[6] = Homo sapiens, HT-29, 72 h after drug exposure
[7] = Homo sapiens, HT-29, mean ± SD, Table S1
[8] = mean ± SD, Table S1, in the presence of verapamil (10 µM)

T1 sequence (Q6B856 whole entry): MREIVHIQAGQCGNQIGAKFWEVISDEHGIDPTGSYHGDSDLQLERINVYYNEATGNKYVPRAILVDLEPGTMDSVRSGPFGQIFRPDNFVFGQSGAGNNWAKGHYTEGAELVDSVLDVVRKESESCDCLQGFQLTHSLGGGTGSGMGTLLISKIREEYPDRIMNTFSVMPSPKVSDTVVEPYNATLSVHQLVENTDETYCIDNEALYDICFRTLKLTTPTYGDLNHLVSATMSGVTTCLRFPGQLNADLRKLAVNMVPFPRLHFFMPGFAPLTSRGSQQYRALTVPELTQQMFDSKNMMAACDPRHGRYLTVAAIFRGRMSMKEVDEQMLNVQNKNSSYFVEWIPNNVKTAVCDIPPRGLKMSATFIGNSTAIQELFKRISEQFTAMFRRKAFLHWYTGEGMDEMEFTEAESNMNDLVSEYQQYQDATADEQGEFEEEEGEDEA
T1 sequence (P81947 whole entry): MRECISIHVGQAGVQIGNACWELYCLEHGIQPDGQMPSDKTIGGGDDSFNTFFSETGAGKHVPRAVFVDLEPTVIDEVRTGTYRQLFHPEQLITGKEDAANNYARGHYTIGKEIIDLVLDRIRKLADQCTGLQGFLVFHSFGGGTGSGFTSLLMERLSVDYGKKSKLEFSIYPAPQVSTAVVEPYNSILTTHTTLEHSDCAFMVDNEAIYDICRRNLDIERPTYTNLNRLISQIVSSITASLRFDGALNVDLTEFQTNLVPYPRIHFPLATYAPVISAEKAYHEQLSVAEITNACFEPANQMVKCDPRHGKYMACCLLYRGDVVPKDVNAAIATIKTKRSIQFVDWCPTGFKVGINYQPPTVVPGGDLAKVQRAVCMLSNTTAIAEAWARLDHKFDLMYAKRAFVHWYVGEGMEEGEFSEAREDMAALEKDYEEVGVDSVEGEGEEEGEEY

| SMILES | IC50 ([1]; 72 h after drug exposure) [nM] | IC50 ([1]; mean ± SD, Table S1) [nM] | IC50 [2, 6] [nM] | IC50 [2, 7] [nM] | IC50 [2, 8] [nM] | IC50 [3] [nM] | early and late apoptotic populations (MCF7 cells) [%] | Necrotic cells (MCF7 cells) [%] | apoptotic response (U87 MG cells) | Necrotic cells (U87 MG cells) | Live cells (U87 MG cells) | effect on microtubule network [4] | effect on microtubule network [5] |
| --- | --- | --- | --- | --- | --- | --- | --- | --- | --- | --- | --- | --- | --- |
| CSc1cc(-c2nnnn2-c2ccc3c(c2)c(C=O)cn3C)cc(Cl)n1 [Compound 14, 5-(5-(2-chloro-6-(methylsulfanyl)pyridin-4-yl)-1H-tetrazol-1-yl)-1-methyl-1H-indole-3-carbaldehyde] | 31 | 31.1 ± 0.3 | 31 | 31.1 ± 0.3 | 33.1 ± 0.4 | 800 ± 100 | 29 | 2.6 | 70–74% | 15–19% | 9–15% | severe microtubule network disruption | severe microtubule network disruption |
| CSc1cc(-c2nnnn2-c2ccc3c(ccn3C)c2)cc(Cl)n1 [Compound 10, 5-(5-(2-chloro-6-(methylsulfanyl)pyridin-4-yl)-1H-tetrazol-1-yl)-1-methyl-1H-indole] | 37 | 37.1 ± 0.2 | 59 | 59.4 ± 0.5 | 61.4 ± 0.4 | 1500 ± 100 | 22 | 2.3 | 70–74% | 15–19% | 9–15% | severe microtubule network disruption | severe microtubule network disruption |
| Cn1cc(C=O)c2cc(-n3nnnc3-c3cc(Cl)nc(Cl)c3)ccc21 [Compound 12, 5-(5-(2,6-dichloropyridin-4-yl)-1H-tetrazol-1-yl)-1-methyl-1H-indole-3-carbaldehyde] | 36 | 36.4 ± 0.2 | 51 | 51.3 ± 0.3 | 56.5 ± 0.5 | 1300 ± 100 | 8 | 7 | 70–74% | 15–19% | 9–15% | severe microtubule network disruption | severe microtubule network disruption |
